We go through four molecules from patent publication US5654398A, “Compositions and methods for inhibiting replication of human immunodeficiency virus-1” (priority 1993, dated 1997).

One data set addresses wild-type RRE IIB RNA. The data set is classed as binding, HIV-1. Conditions: for pKd: read-out: Ksp (apparent Kd, wild-type IIB RNA). The method, then:
(§1) Gel shift assays were performed at 4° C. unless described otherwise. Peptide and RNA were incubated together for 15 min on ice in 10 μl binding reactions containing 10 mM HEPES-KOH, pH 7.5, 100 mM KCl, 1 mM MgCl2, 0.5 mM EDTA, 1 mM dithithreitol, 50 μg/ml E. coli tRNA, and 10% glycerol. To determine relative binding affinities, 0.5 nM radiolabeled IIB RNA (or IIB mutant) was titrated with peptide. Peptide-RNA complexes were resolved in 10% polyacrylamide, 0.5x TBE gels that had been prerun for 1 hr and allowed to cool to 4° C. Gels were electrophoresed at 220 V for 3 hr at 4° C., dried, and autoradiographed.
(§2) FIG. 3C. Relationship between helix content of the Rev34-50 peptides and RNA-binding specificity. Apparent Kd s (the peptide concentration at which 50% of the RNA was shifted) were determined for wild-type (specific; Ksp) and mutant (nonspecific; Knonsp) IIB RNAs from the date in FIGS. 3A and 3B. Specificity, the ratio of specific to nonspecific apparent association constants (Ka s) is plotted against the helix content for each peptide, determined from the CD ellipticity at 222 nm (Chen et al., (1974) "Determination of the Helix and Beta Form of Proteins in Aqueous Solution by Circular Dichroism" Biochemistry 13:3350-3359 ) Peptide I: helix=0.1%; ksp =2000 nM; Knonsp =3000 nM. Peptide II: helix=3.9%; Ksp =300 nM; Knonsp =2000 nM. Peptide III: helix=10.9%; Ksp =100 nM; Knonsp =2000 nM. Peptide IV: helix=27.9%; Ksp =40 nM; Knonsp =2000 nM. Peptide V: helix=51.2%; Ksp =20 nM; Knonsp 1500 nM.

A further data set concerns the target mutant (C46-G74) IIB RNA. Type of data set: binding, HIV-1. Conditions: for pKd: read-out: Knonsp (apparent Kd, mutant IIB RNA). The method, then: as §1, §2
Data set [1] is described as follows: Circular dichroism, α-helix content. The data set is classed as physicochemical. The settings on record: for % Helix (α-helix content): from CD ellipticity at 222 nm, 4° C., pH 7.5. The method, then:
CD spectra were measured using an Aviv model 62DS spectropolarimeter. Samples were prepared in 10 mM potassium phosphate buffer, pH 7.5 and 100 mM KF, and temperature was maintained at 4° C. unless described otherwise. Spectra were recorded from 320 nm to 190 nm using a 1 cm pathlength cuvette and the signal was averaged for 10 sec. Scans were repeated five times and averaged. Peptide concentrations were typically 5-20 μM and ellipticity was calculated per amino acid residue.
as §2

In data set [2] the test system is IIB RNA mutant A71 (G71 to A71). In words: RNA-binding gel shift assay, A71 mutant IIB RNA. Further details: species or system HIV-1. The settings on record: in the presence of tRNA. The method, then: as §1
(§3) FIG. 1B. Peptide binding to IIB mutants. Binding reactions were carried out in the presence of tRNA at the peptide concentrations indicated, and free RNA and peptide-RNA complexes were resolved by the gel shift assay. Each pair of lanes corresponds to RNA alone and peptide-RNA binding reactions. […]. The wild-type lanes on both sides of the gel are identical. The slower mobility of the A71 mutant in the absence of peptide may indicate that its unbound conformation is different than wild-type IIB. […] This phenomenon has been seen with other mutant RNAs and with mutant Rev peptides, and has been interpreted as differences in RNA conformation between specific and nonspecific complexes (Kjems et al. (1992), supra).

The subject of data set [3] is IIB RNA mutant A47 (G47 to A47). In words: RNA-binding gel shift assay, A47 mutant IIB RNA. Further details: species or system HIV-1. Conditions: in the presence of tRNA. The method, then:
as §1, §3

pKd: −log10 of the molar value. Entries after “also recorded” stand apart in the source; their conditions may differ. Residues, ends and D or L forms follow the SMILES beside them.

On to `C[C@H](NC(=O)[C@H](CCC(N)=O)NC(=O)[C@H](CCCNC(=N)N)NC(=O)[C@@H](N)[C@@H](C)O)C(=O)N[C@@H](CCCNC(=N)N)C(=O)N[C@@H](CCCNC(=N)N)C(=O)N[C@@H](CC(N)=O)C(=O)N[C@@H](CCCNC(=N)N)C(=O)N[C@@H](CCCNC(=N)N)C(=O)N[C@@H](CCCNC(=N)N)C(=O)N[C@@H](CCCNC(=N)N)C(=O)N[C@@H](Cc1c[nH]c2ccccc12)C(=O)N[C@@H](CCCNC(=N)N)C(=O)N[C@@H](CCC(=O)O)C(=O)N[C@@H](CCCNC(=N)N)C(=O)N[C@@H](CCC(N)=O)C(=O)N[C@@H](CCCNC(=N)N)C(N)=O` [Peptide II, N-Rev34-50 --am] (H-TRQARRNRRRRWRERQR-NH2), for which the pKd was 6.52 on wild-type RRE IIB RNA and 5.70 on mutant (C46-G74) IIB RNA. Moreover, the “% Helix (α-helix content)” value in data set [1] is 3.9%; in data set [1] (listed as N-Rev34-50 --am), “approximately 4%”.

On to `CC(=O)N[C@H](C(=O)N[C@@H](CCCNC(=N)N)C(=O)N[C@@H](CCC(N)=O)C(=O)N[C@@H](C)C(=O)N[C@@H](CCCNC(=N)N)C(=O)N[C@@H](CCCNC(=N)N)C(=O)N[C@@H](CC(N)=O)C(=O)N[C@@H](CCCNC(=N)N)C(=O)N[C@@H](CCCNC(=N)N)C(=O)N[C@@H](CCCNC(=N)N)C(=O)N[C@@H](CCCNC(=N)N)C(=O)N[C@@H](Cc1c[nH]c2ccccc12)C(=O)N[C@@H](CCCNC(=N)N)C(=O)N[C@@H](CCC(=O)O)C(=O)N[C@@H](CCCNC(=N)N)C(=O)N[C@@H](CCC(N)=O)C(=O)N[C@@H](CCCNC(=N)N)C(N)=O)[C@@H](C)O` [Peptide III] (Ac-TRQARRNRRRRWRERQR-NH2), for which the values for the pKd at wild-type RRE IIB RNA and on mutant (C46-G74) IIB RNA were 7.00 and 5.70, respectively. Also, in data set [1], the “% Helix (α-helix content)” value was 10.9%.

Turning to `C[C@H](NC(=O)[C@H](CCC(N)=O)NC(=O)[C@H](CCCNC(=N)N)NC(=O)[C@@H](N)[C@@H](C)O)C(=O)N[C@@H](CCCNC(=N)N)C(=O)N[C@@H](CCCNC(=N)N)C(=O)N[C@@H](CC(N)=O)C(=O)N[C@@H](CCCNC(=N)N)C(=O)N[C@@H](CCCNC(=N)N)C(=O)N[C@@H](CCCNC(=N)N)C(=O)N[C@@H](CCCNC(=N)N)C(=O)N[C@@H](Cc1c[nH]c2ccccc12)C(=O)N[C@@H](CCCNC(=N)N)C(=O)N[C@@H](CCC(=O)O)C(=O)N[C@@H](CCCNC(=N)N)C(=O)N[C@@H](CCC(N)=O)C(=O)N[C@@H](CCCNC(=N)N)C(=O)O` [Peptide I] (H-TRQARRNRRRRWRERQR-OH), in the data set with wild-type RRE IIB RNA, the “specific RNA binding / discrimination between wild-type and mutant IIB RNAs (in words)” value is “binds only slightly better to wild-type IIB than to the mutant RNA; also recorded: essentially unable to discriminate between wild-type and mutant RNAs”; the pKd is 5.70. Further, the pKd on mutant (C46-G74) IIB RNA was 5.52. Besides, the “α-helix content by CD (in words)” value in data set [1] (CD spectra) is given as “mostly unstructured”. The “% Helix (α-helix content)” value in data set [1] worked out at 0.1%.

For `C[C@H](NC(=O)[C@H](CCC(N)=O)NC(=O)[C@H](CCCNC(=N)N)NC(=O)[C@@H](N)[C@@H](C)O)C(=O)N[C@@H](CCCNC(=N)N)C(=O)N[C@@H](CCCNC(=N)N)C(=O)N[C@@H](CC(N)=O)C(=O)N[C@@H](CCCNC(=N)N)C(=O)N[C@@H](CCCNC(=N)N)C(=O)N[C@@H](CCCNC(=N)N)C(=O)N[C@@H](CCCNC(=N)N)C(=O)N[C@@H](Cc1c[nH]c2ccccc12)C(=O)N[C@@H](CCCNC(=N)N)C(=O)N[C@@H](CCC(=O)O)C(=O)N[C@@H](CCCNC(=N)N)C(=O)N[C@@H](CCC(N)=O)C(=O)N[C@@H](CCCNC(=N)N)C(N)=O` [Rev34-50] (H-TRQARRNRRRRWRERQR-NH2), the “Reduction of affinity compared to wild-type IIB” value with mutant (C46-G74) IIB RNA (C46-G74 base pair mutant, in the presence of tRNA) is “about 10 fold”; in data set [2], “about 10 fold”; in data set [3] it was “about 10 fold”.
